Test results from ChEMBL document CHEMBL3507680, “University of Dundee, Gates Library screen for HepG2 cell viability”.

Experiment: Human HepG2 cell viability assay in 384 well format
Format: toxicity, cell-based
Parameters: dose 125 nL, time 70.5 hour; concentration not given beside the values
Conditions: HepG2 cells, read-out: Inhibition

Row | Compound | cytotoxicity at 70.5 h
1 | CCCc1cc(CNC2CCN(c3nc(C)cc(C)n3)CC2)on1 | -5.05%
2 | Cc1cc(-c2ccc(=O)n(CCNC(=O)C3CC3)n2)c(C)o1 | 0.992%
3 | CCOc1ccc(C(=O)Nc2c(C)nc3ccc(Cl)cn3c2=O)cc1 | -3.81%
4 | CN1C(=O)C2(CCN(S(C)(=O)=O)CC2)c2cc(F)ccc21 | -3.04%
5 | CC(C)c1nc(C2CCCN2CCc2ccncc2)no1 (stereo not given) | 16.2%
6 | Cc1c(C(C)NC(=O)Nc2ccc(F)cc2F)cnn1C (stereo not given) | -3.54%
7 | CNc1nccnc1C1CN(C(=O)c2c[nH]cn2)CCO1 (stereo not given) | 3.73%
8 | COc1ccc(NC(=O)CCC2CCCN(Cc3ncon3)C2)cc1Cl (stereo not given) | -7.33%
9 | COCCN(Cc1cnn(C)c1)CC1CCOC1 (stereo not given) | -6.85%
10 | O=C(c1ccncc1)N1CCCn2c(CN3CCCC3)nnc2C1 | -9.38%
11 | Cc1ccc(S(=O)(=O)N2CCN(C)c3ccncc32)cc1F | -4.45%
12 | O=C(NCc1ccccn1)[C@H]1COC[C@H]2CN(Cc3ccoc3)C[C@H]21 | -2.29%
13 | Cc1ccoc1C(=O)N1C[C@H]2CCC[C@@]2(COCc2ccncc2)C1 | 5.44%
14 | CS(=O)(=O)CCC(=O)Nc1cnn(-c2ccccc2Cl)c1 | 2.48%
15 | O=C(c1n[nH]c2c1CN(C1CCOC1)CC2)N1CCCC1 (stereo not given) | -1.72%
16 | CCC(CC)C(=O)Nc1ccc2oc(=O)n(CCN(C)C)c2c1 | 12.5%
17 | Cn1cncc1-c1nnc([C@H]2CCN(Cc3ncc[nH]3)C2)o1 | 2.99%
18 | CC(C)c1ccc(C(C)NC(=O)N2CCC(n3cncn3)CC2)cc1 (stereo not given) | -13.4%
19 | Cc1ccc(-c2nc(CCNC(=O)NC3CCC(O)CC3)co2)cc1 (stereo not given) | 0.284%
20 | Cn1cc(CN2CC[C@@H]3[C@@H](CCC(=O)N3CCc3ccccc3)C2)cn1 | -0.863%
21 | COc1cccc(CC(=O)N2CCC(NCc3c[nH]nc3C)CC2)c1 | -4.19%
22 | Cc1ccsc1[C@@H]1CCN(C(=O)Cn2cc3ccccc3n2)C[C@H]1O | 15.1%
23 | O=C(NC[C@H]1CCCC[C@H]1O)c1ccc2nc(-c3ccco3)[nH]c2c1 | -1.94%
24 | COCc1cc(CNC(=O)c2cc(NC(C)=O)ccc2Cl)n[nH]1 | -6.43%
25 | CC(C)CN1CCC2(CCN(Cc3ccsc3)CC2)C1=O | 6.07%
26 | CCN(C(=O)CN1CCCC1c1c(C)nn(C)c1OC)C1CC1 (stereo not given) | -6.09%
27 | CC(CNC1CCN(c2ccccn2)CC1)Oc1ccc(F)cc1 (stereo not given) | 23.5%

Row | Compound | cytotoxicity at 70.5 h
28 | Cc1cccc(Cc2cc(C)nc(C3CCCNC3)c2)c1 (stereo not given) | 2.77%
29 | CNS(=O)(=O)c1ccc(CNC(=O)c2c(C)oc(C)c2C)cc1 | -12.9%
30 | CCC(C)N(Cc1cnc(NC(C)C)nc1)Cc1ccsc1 (stereo not given) | -4.23%
31 | CC(C)CN1CC[C@@H]2[C@@H]1CCN2S(=O)(=O)c1cccs1 | -18%
32 | CN(C)C(=O)c1cc(NC(=O)N2CCCC(C(F)(F)F)C2)ccn1 (stereo not given) | -1.06%
33 | Cc1ccccc1C(C)NC(=O)CN1CCN(Cc2ccc(Cl)s2)CC1 (stereo not given) | 17%
34 | CC(C)(C)n1ncc2c(=O)[nH]c(N3CCN(CC(F)F)CC3)nc21 | -4.17%
35 | Nc1nc2c(c3c1C(=O)NC3=O)CCC2 | -14.7%
36 | CN(Cc1ccc(F)cc1)CC1(O)CCN(C(=O)c2cccn2C)C1 (stereo not given) | -10.7%
37 | N#CCCN1CC(O)CN(C(=O)c2cccc(C(F)(F)F)c2)CC1=O (stereo not given) | -1.43%
38 | COc1cccc(CN(C)C(=O)Nc2ccc3c(c2)OCCO3)c1 | 12.4%
39 | Cc1ccccc1CS(=O)(=O)c1nnc(C(C)NC(=O)OC(C)(C)C)o1 (stereo not given) | 26.9%
40 | CC1CN(CC(=O)NCCc2ccccc2)CCN1c1nccs1 (stereo not given) | -5.41%
41 | CCOc1ccc(NCc2cnc(N3CCN(C)CC3)nc2)cn1 | -1.43%
42 | O=C(NCCN1CCCCC1)c1nc2ccccc2c(=O)[nH]1 | 4.35%
43 | O=C(NCc1cccc(F)c1)Nc1ccn(CCN2CCOCC2)n1 | -4.92%
44 | CC(C)c1noc(CN2CCN(C(=O)c3cccnc3O)CC2)n1 | -3.73%
45 | COc1ccc(CNC(C)c2ccccc2Cl)c(OC)c1OC (stereo not given) | 18.3%
46 | N#Cc1ccc(OCC(=O)N2CCCC(n3cccn3)C2)cc1 (stereo not given) | -4.85%
47 | O=C1C(NS(=O)(=O)c2ccc(F)cc2)CCN1Cc1ccccc1 (stereo not given) | -13.4%
48 | Cc1cc(NC(=O)C(C)N2CCN(c3ccccc3F)CC2)no1 (stereo not given) | 4.65%
49 | Cc1ccccc1OCCN1CCN(Cc2cnn(CCO)c2)CC1 | 4.76%
50 | O=C(NCc1cc(=O)n2c(n1)CN(CC1CCOC1)CCC2)C1CC1 (stereo not given) | -4.46%
51 | CN(C)C(=O)CN1CCC2(CCN(CC3CC3)CC2)C1=O | 9.87%
52 | COC(=O)c1ccccc1NC(=O)c1nc2ccccc2n(C)c1=O | 32.8%
53 | C[C@@H](NCc1cccc(Cl)c1)c1onc(-c2ccccc2)c1C(=O)O | -3.56%
54 | Cc1nc(C)n(CC2CCCN2CC(=O)NCCc2cccs2)n1 (stereo not given) | -15.5%

Row | Compound | cytotoxicity at 70.5 h
55 | CC(=O)NC(C)(C)c1noc(C2(C#N)CCCCC2)n1 | -3.45%
56 | Cn1ccc2c(C(=O)NCCCN3CCOCC3)cccc21 | 11.5%
57 | Cc1nc(-c2cccc(N3CCC(N4CCCC4)CC3)c2)cs1 | 13.8%
58 | COc1cc2c(cc1C1CC(=O)NCc3nc(N(C)C)sc31)CCC2 (stereo not given) | 0.498%
59 | O=C(NCCNc1ccc(C(F)(F)F)cn1)c1cncc(Br)c1 | -12.5%
60 | CNC(=O)N1CCOC(C)(c2cnn(C)c2)C1 (stereo not given) | -5.87%
61 | Cc1nc(CN2CCCC(NCc3ccc(C(N)=O)cc3)C2)no1 (stereo not given) | -4.31%
62 | Cc1ccc(-c2ncc(CNc3cnccc3CO)s2)o1 | -2.69%
63 | Cn1nnc2c(N3CC(C(=O)NCCC4=CCCCC4)C3)ncnc21 | -18.5%
64 | Cc1cc(C)n(Cc2ccc(C(=O)N3CCOCC3(C)C)cc2)n1 | 12.1%
65 | O=C(c1cnccn1)N1C[C@@H]2CC[C@H](C1)N(C(=O)Cc1ccsc1)C2 | -1.28%
66 | Cc1ccc(C(=O)NCCC(C)C)cc1NS(C)(=O)=O | -10%
67 | CC(C)CN1CC2(CCN(C(=O)C(O)c3ccccc3Cl)CC2)CC1=O (stereo not given) | -5.68%
68 | COc1ccc(Cn2cc(C(=O)N(C)Cc3ccn[nH]3)nn2)cc1 | -18.5%
69 | c1ccc(CO[C@H]2CN(c3ncccn3)C[C@@]23CCCO3)cc1 | -11.5%
70 | CC1CCCCN1CCNC(=O)c1scnc1Cl (stereo not given) | -12.6%
71 | O=C(c1cc(Cl)c2c(c1)OCO2)N1CCCC(n2ccnc2)C1 (stereo not given) | -8.93%
72 | Cn1cc(C(=O)NCc2cn3c(n2)CN(CC2CCOC2)CC3)cn1 (stereo not given) | -110%
73 | COc1ncccc1C(=O)N1CC[C@]2(C[C@@H](Oc3cccnc3)CO2)C1 | 25.3%
74 | CC(COc1ccccc1)NCc1nc(-c2cccnc2)no1 (stereo not given) | -1.13%
75 | CC(C)N1CCC(C(=O)N2CCC(c3ccc(F)cc3)C2)CC1 (stereo not given) | -20.4%
76 | O=S1(=O)CCC(n2cc(CNCC3(c4ccccc4)CC3)cn2)C1 (stereo not given) | 30.7%
77 | CC(=O)N1CCCN(C(=O)NCCc2ccc(Cl)s2)CC1 | -1.97%
78 | Cc1nnc(CN(C)C2CCN(CCc3cccs3)C2)n1C (stereo not given) | 15.2%
79 | c1ccc(OCC2C[C@@H]3[C@@H](C2)OCCN3Cc2ccoc2)nc1 (stereo not given in full) | -0.172%
80 | c1nc(NCC2(N3CCOCC3)CCSC2)c2sccc2n1 (stereo not given) | -4.54%
